In patent publication US20130109682A1, “CYCLIC ETHER COMPOUNDS USEFUL AS KINASE INHIBITORS” (NOVARTIS AG, priority 2010, published 2013):
Read-outs that look alike come from different tables or passages of the source.

How the values were obtained:
Type in all cases: biochemical
PKCα = PKCα (Homo sapiens, UniProt P17252); assay: PKCα kinase Caliper assay; details: read-out: PKC IC50
Experimental: PKCα and cABLT315 Kinase Caliper Assays
Assays were performed in 384 well microtiter plates. Each assay plate contained 8-point serial dilutions for test compounds, as well as two 16-point serial dilutions of staurosporine as reference compound, plus 16 high- and 16 low controls. Liquid handling and incubation steps were done on a Thermo CatX workstation equipped with a Innovadyne Nanodrop Express. Between pipetting steps, tips were cleaned in wash cycles using wash buffer. Plates with terminated kinase reactions were transferred to the Caliper LC3000 workstations for reading. Phosphorylated and unphosphorylated peptides were separated using the Caliper microfluidic mobilitishift technology and Kinase activities were calculated from the amounts of formed phospho-peptide.
1. 0.05 μA Compound (start with 1.8 mM in 90% DMSO/10% H2O)
2. +4.5 μl 2× peptide/ATP solution
3. +4.5 μl 2× enzyme solution
4. Incubate for 60 min at 30° C.
4. +16 μl stop/run buffer
Independent of the kinase, all reactions were done performed in 50 mM HEPES, pH 7.5, 1 mM DTT, 0.02% Tween20, 0.02% BSA, and 0.6% DMSO.

PDGFRaV561D kinase = PDGFRaV561D kinase (Homo sapiens, UniProt P16234, V561D); assay: PDGFRaV561D kinase inhibition assay (LanthaScreen TR-FRET); details: read-out: PDGFRa IC50
Experimental: PDGFRaV561D Kinase Inhibition Assay
(§1) LanthaScreen™ is the detection of Time-Resolved Fluorescence Resonance Energy Transfer (TR-FRET) using lanthanide chelates to measure interactions between various binding partners. The application of TR-FRET to assay kinase activity was first described by Mathis (1995). A TR-FRET assay was used to measure PDGFRaV561D kinase inhibitory activity. The assay panel was run on a Biomek FX liquid handling workstations. To the assay plates containing […] compound or control solutions, 4.5 μL of buffer A (50 mM TRIS-HCl pH 7.4, 2 mM DTT, 0.02% Tween 20, 0.02 mM Na3VO4, H2O nanpure) including a generic concentration of ATP (2 μM f.c.) was added per well, followed by […] of buffer B (4 uM ATP in Buffer A) including a generic concentration of polyEAY (50 nM f.c.), PDGFRaV561D kinase, and divalent cations. Final concentration of kinase and cations were: [PDGFRaV561D kinase]=4.4 nM, [Mn]=10 mM. After 1 hour of incubation the kinase reactions were stopped by the addition of 4.5 μL of stop solution D (50 mM EDTA, 20 mM TRIS-HCl pH 7.4, 0.04% NP-40) immediately followed by 4.5 μL of buffer A (50 mM TRIS-HCl pH 7.4, 2 mM DTT, 0.02% Tween 20, 0.02 mM Na3VO4, H2O nanpure) including the Tb-labeled P-20 antibody to give a total detection volume of […]. After an incubation time of 45 min in the dark, the plates were transferred into the Pherastar fluorescence reader for counting. The effect of compound on the enzymatic activity was obtained from the linear progress curves and determined from one reading (end point measurement).

FLT3D835Y kinase = molecular target: T1, FLT3D835Y kinase (Homo sapiens, UniProt P36888, D835Y); assay: FLT3D835Y kinase inhibition assay (LanthaScreen TR-FRET); details: read-out: FLT3 IC50
T1 sequence (P36888 27-993 D835Y): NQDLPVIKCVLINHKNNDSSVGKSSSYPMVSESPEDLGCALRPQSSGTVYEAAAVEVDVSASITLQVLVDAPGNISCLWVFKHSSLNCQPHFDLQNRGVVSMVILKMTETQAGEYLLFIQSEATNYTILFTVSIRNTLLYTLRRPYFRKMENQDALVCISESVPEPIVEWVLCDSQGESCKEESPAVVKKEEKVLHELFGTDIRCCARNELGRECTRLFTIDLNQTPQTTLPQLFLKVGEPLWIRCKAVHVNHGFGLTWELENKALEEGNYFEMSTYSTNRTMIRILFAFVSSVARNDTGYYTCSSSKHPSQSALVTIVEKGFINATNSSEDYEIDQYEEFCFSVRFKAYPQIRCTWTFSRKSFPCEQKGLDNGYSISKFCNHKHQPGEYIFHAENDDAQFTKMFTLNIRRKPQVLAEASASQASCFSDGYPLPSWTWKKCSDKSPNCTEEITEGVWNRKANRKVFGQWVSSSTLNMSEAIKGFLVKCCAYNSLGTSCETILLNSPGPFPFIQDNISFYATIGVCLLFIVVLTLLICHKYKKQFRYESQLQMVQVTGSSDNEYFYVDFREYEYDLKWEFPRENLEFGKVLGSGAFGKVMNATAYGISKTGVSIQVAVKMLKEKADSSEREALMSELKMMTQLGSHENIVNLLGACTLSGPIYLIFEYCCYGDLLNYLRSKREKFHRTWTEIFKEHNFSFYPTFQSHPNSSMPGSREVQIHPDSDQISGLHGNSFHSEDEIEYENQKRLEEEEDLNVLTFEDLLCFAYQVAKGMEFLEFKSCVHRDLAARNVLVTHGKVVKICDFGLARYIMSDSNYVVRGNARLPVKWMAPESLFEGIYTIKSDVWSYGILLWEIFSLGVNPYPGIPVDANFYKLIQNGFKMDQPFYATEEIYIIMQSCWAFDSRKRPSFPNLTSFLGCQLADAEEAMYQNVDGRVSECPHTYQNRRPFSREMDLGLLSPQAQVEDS
Experimental: FLT3D835Y Kinase Inhibition Assay
as §1, with “FLT3D835Y” for “PDGFRaV561D”, “[FLT3D835Y kinase]=5.7” for “[PDGFRaV561D kinase]=4.4”, “[Mg]=3 mM, [Mn]=3” for “[Mn]=10”

Chain of PDGFRaV561D kinase (P16234 24-1089 V561D): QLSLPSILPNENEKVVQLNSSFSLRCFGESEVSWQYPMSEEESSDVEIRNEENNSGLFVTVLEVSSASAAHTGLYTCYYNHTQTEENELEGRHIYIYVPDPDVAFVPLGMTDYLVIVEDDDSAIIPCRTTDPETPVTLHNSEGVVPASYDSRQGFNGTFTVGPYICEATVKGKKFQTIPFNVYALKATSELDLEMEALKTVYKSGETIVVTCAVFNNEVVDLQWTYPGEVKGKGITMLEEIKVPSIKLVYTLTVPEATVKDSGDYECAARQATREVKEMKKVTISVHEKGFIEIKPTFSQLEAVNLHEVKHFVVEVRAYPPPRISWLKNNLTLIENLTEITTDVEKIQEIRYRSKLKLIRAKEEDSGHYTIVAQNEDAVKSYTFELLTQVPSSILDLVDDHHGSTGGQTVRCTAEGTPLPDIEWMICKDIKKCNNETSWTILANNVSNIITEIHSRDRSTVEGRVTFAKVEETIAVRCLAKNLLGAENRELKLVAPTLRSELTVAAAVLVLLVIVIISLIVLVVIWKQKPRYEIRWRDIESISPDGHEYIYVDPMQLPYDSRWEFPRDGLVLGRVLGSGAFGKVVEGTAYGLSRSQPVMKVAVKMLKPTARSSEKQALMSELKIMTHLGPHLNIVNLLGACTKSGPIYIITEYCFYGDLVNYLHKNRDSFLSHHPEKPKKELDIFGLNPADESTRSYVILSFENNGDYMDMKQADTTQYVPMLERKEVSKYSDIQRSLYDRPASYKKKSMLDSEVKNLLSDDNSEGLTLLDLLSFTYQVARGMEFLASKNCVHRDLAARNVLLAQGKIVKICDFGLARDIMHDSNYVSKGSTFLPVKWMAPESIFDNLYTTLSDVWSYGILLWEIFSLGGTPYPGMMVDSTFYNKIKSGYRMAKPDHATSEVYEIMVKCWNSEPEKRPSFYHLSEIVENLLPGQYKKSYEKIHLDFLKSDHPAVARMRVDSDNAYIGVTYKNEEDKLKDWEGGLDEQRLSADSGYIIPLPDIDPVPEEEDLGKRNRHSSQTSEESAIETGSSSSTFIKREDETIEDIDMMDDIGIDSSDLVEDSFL

Nc1ncc(-c2ccccc2)nc1C(=O)Nc1cnccc1[C@H]1C[C@@H](N)[C@H](O)[C@@H](C2CC2)O1 [Example 346, 3-amino-N-(4-((2R,4R,5S,6R)-4-amino-6-cyclopropyl-5-hydroxytetrahydro-2H-pyran-2-yl)pyridin-3-yl)-6-phenylpyrazine-2-carboxamide]
IC50 (PKCα; PKCα Caliper assay): 60 nM | IC50 (PDGFRaV561D kinase): 72 nM | IC50 (FLT3D835Y kinase): 8.5 nM

CC(C)(C)[C@@H]1O[C@H](c2ccncc2NC(=O)c2nc(-c3ccccc3)cnc2N)C[C@@H](N)[C@H]1O [Example 227, 3-amino-N-(4-((2S,4R,5R,6S)-4-amino-6-tert-butyl-5-hydroxytetrahydro-2H-pyran-2-yl)pyridin-3-yl)-6-phenylpyrazine-2-carboxamide]
IC50 (PKCα; PKCα Caliper assay): 55 nM | IC50 (PDGFRaV561D kinase): 1300 nM | IC50 (FLT3D835Y kinase): 140 nM

Nc1ncc(-c2ccccc2)nc1C(=O)Nc1cnccc1[C@H]1C[C@@H](N)[C@@]2(O)CCC[C@H]2O1 [Example 183, 3-amino-N-(4-((2R,4R,4aS,7aR)-4-amino-4a-hydroxyoctahydrocyclopenta[b]pyran-2-yl)pyridin-3-yl)-6-phenylpyrazine-2-carboxamide]
IC50 (PKCα; PKCα Caliper assay): 34 nM | IC50 (PDGFRaV561D kinase): 23 nM | IC50 (FLT3D835Y kinase): 4.4 nM

CC[C@@H]1O[C@H](c2ccncc2NC(=O)c2nc(-c3ccccc3)cnc2N)C[C@H](N)[C@@]1(C)O [Example 345, 3-amino-N-(4-((2S,4S,5R,6S)-4-amino-6-ethyl-5-hydroxy-5-methyltetrahydro-2H-pyran-2-yl)pyridin-3-yl)-6-phenylpyrazine-2-carboxamide]
IC50 (PKCα; PKCα Caliper assay): 660 nM | IC50 (PDGFRaV561D kinase): 7400 nM | IC50 (FLT3D835Y kinase): 920 nM

C[C@@]1(O)[C@H](N)C[C@@H](c2ccncc2NC(=O)c2nc(-c3ccccc3)cnc2N)OC12CC2 [Example 352, 3-amino-N-(4-((5S,7R,8R)-7-amino-8-hydroxy-8-methyl-4-oxaspiro[2.5]octan-5-yl)pyridin-3-yl)-6-phenylpyrazine-2-carboxamide]
IC50 (PKCα; PKCα Caliper assay): 55 nM | IC50 (PDGFRaV561D kinase): 41 nM | IC50 (FLT3D835Y kinase): 2.5 nM

Nc1ncc(-c2ccccc2)nc1C(=O)Nc1cnccc1[C@H]1C[C@@H](N)[C@H]2CCC[C@H]2O1 [Example 199, 3-amino-N-(4-((2R,4R,4aR,7aR)-4-aminooctahydrocyclopenta[b]pyran-2-yl)pyridin-3-yl)-6-phenylpyrazine-2-carboxamide]
IC50 (PKCα; PKCα Caliper assay): 31 nM | IC50 (PDGFRaV561D kinase): 14 nM | IC50 (FLT3D835Y kinase): 1.8 nM

Nc1ncc(-c2ccccc2)nc1C(=O)Nc1cnccc1[C@H]1C[C@@H](O)[C@H](O)[C@@H](CO)O1 [Example 341, 3-amino-N-(4-((2R,4R,5S,6R)-4,5-dihydroxy-6-(hydroxymethyl)tetrahydro-2H-pyran-2-yl)pyridin-3-yl)-6-phenylpyrazine-2-carboxamide]
IC50 (PKCα; PKCα Caliper assay): 650 nM | IC50 (PDGFRaV561D kinase): 880 nM | IC50 (FLT3D835Y kinase): 120 nM

Nc1ncc(-c2ccccc2)nc1C(=O)Nc1cnccc1[C@H]1C[C@@H](N)[C@@]2(O)CCCC[C@H]2O1 [Example 197, 3-amino-N-(4-((2R,4R,4aS,8aR)-4-amino-4a-hydroxyoctahydro-2H-chromen-2-yl)pyridin-3-yl)-6-phenylpyrazine-2-carboxamide]
IC50 (PKCα; PKCα Caliper assay): 41 nM | IC50 (PDGFRaV561D kinase): 23 nM | IC50 (FLT3D835Y kinase): 1.4 nM

CC[C@H]1O[C@@H](c2ccncc2NC(=O)c2nc(-c3ccccc3)cnc2N)C[C@@H](N)[C@@H]1O [Example 343, 3-amino-N-(4-((2R,4R,5S,6R)-4-amino-6-ethyl-5-hydroxytetrahydro-2H-pyran-2-yl)pyridin-3-yl)-6-phenylpyrazine-2-carboxamide]
IC50 (PKCα; PKCα Caliper assay): 23 nM | IC50 (PDGFRaV561D kinase): 12 nM | IC50 (FLT3D835Y kinase): 1.8 nM

C[C@@]1(O)[C@@H](N)C[C@@H](c2ccncc2NC(=O)c2nc(-c3ccccc3)cnc2N)O[C@H]1C1CC1 [Example 347, 3-amino-N-(4-((2S,4S,5R,6S)-4-amino-6-cyclopropyl-5-hydroxy-5-methyltetrahydro-2H-pyran-2-yl)pyridin-3-yl)-6-phenylpyrazine-2-carboxamide]
IC50 (PKCα; PKCα Caliper assay): 1000 nM | IC50 (PDGFRaV561D kinase): 9000 nM | IC50 (FLT3D835Y kinase): 770 nM

CC(C)(C)[C@@H]1O[C@H](c2ccncc2NC(=O)c2nc(-c3ccccc3)cnc2N)C[C@H](N)[C@H]1O [Example 355, 3-amino-N-(4-((2S,4S,5R,6S)-4-amino-6-tert-butyl-5-hydroxytetrahydro-2H-pyran-2-yl)pyridin-3-yl)-6-phenylpyrazine-2-carboxamide]
IC50 (PKCα; PKCα Caliper assay): 840 nM | IC50 (PDGFRaV561D kinase): 9100 nM | IC50 (FLT3D835Y kinase): 2600 nM

CC[C@H]1O[C@@H](c2ccncc2NC(=O)c2nc(-c3ccccc3)cnc2N)C[C@@H](N)[C@]1(C)O [Example 348, 3-amino-N-(4-((2R,4R,5S,6R)-4-amino-6-ethyl-5-hydroxy-5-methyltetrahydro-2H-pyran-2-yl)pyridin-3-yl)-6-phenylpyrazine-2-carboxamide]
IC50 (PKCα; PKCα Caliper assay): 220 nM | IC50 (PDGFRaV561D kinase): 150 nM | IC50 (FLT3D835Y kinase): 17 nM

Nc1ncc(-c2ccccc2)nc1C(=O)Nc1cnccc1[C@H]1C[C@@H](O)[C@@]2(O)CCCC[C@H]2O1 [Example 173, 3-amino-N-(4-((2R,4R,4aS,8aR)-4,4a-dihydroxyoctahydro-2H-chromen-2-yl)pyridin-3-yl)-6-phenylpyrazine-2-carboxamide]
IC50 (PKCα): 310 nM | IC50 (PDGFRaV561D kinase): 48 nM | IC50 (FLT3D835Y kinase): 7.4 nM
